According to patent publication US20160199463A1, “HDAC2 DEFENDS VASCULAR ENDOTHELIUM FROM INJURY” (The Johns Hopkins University, priority 2014, published 2016):

Columns and labels:
[1] = tested on: aortic rings from Arg2−/− mice; experiment: Force tension (wire) myography, vascular relaxation of aortic rings from Arg2-/- mice; format: cell-based, mouse; conditions: Arg2−/− mice; TSA 200 nmol/L; n=6
Protocol: Mouse aorta was isolated and cleaned in ice-cold Krebs-Ringer-bicarbonate solution containing the following (in mM): 118.3 NaCl, 4.7 KCl, 1.6 CaCl2, 1.2 KH2 PO4, 25 NaHCO3, 1.2 MgSO4, and 11.1 dextrose. The aorta was immersed in a bath filled with constantly oxygenated Krebs buffer at 37° C. Equal size thoracic aortic rings (2 mm) were mounted using a microscope, ensuring no damage to the smooth muscle or endothelium. One end of the aortic rings was connected to a transducer, and the other to a micromanipulator. Aorta was passively stretched to an optimal resting tension using the micromanipulator, after which a dose of 60 mM KCl was administered, and repeated after a wash with Krebs buffer. After these washes, all vessels were allowed to equilibrate for 20-30 min in the presence of indomethacin (3 μM). Phenylephrine (1 μM) was administered to induce vasoconstriction. A dosedependent response (1 nM to 10 μM), with the muscarinic agonist, ACH or nitric oxide donor, SNP, was then performed as necessary. The responses were repeated in the presence of inhibitors. Relaxation responses were calculated as a percentage of tension following pre-constriction. Sigmoidal dose-response curves were fitted to data with the minimum constrained to 0. Two to four rings were isolated from each animal and the number of animals in each group (n) was 6.

[2] = tested on: arginase activity in HAECs; experiment: Arginase activity assay (urea production) in HAEC lysates; format: cell-based, human
Protocol: HAEC were lysed using RIPA buffer (50 mM of Tris.HCl, pH 7.5, 0.1 mM EDTA, 0.1% Triton X-100, and protease inhibitor), and centrifuged for 30 min at 14,000 g at 4° C. 50 μL (50-100 μg) of supernatant was added to 75 μl of 10 mM MnCl2 made in Tris-HCl (50 mM, pH 7.5) and heat activated by incubating at 55-60° C. for 10 min. 50 μL of L-Arginine that was prepared in 300 mM Tris-HCL, pH 9.7 were then added to the activated cell lysates to achieve final concentrations of 150 mM and incubated at 37° C. for 3 hrs with shaking. The reaction was stopped by adding 400 μL of an acid solution (H2SO4: H3PO4: H20=1:3:7). For colorimetric determination of urea, α-isonitrosopropiophenone (25 μL, 9% in ethanol) was added and further heated at 100° C. for 45 min. Samples were allowed to cool at room temperature in the dark for 10 min and urea concentration was determined by measuring absorbance at 550 nm using a spectrophotometer.

Arg2 = Arg2 protein expression in HAECs (Western blot); format: cell-based, human
Protocol: (§1) After 48 hrs of HAEC cells transfection, cells were lysed in ice cold RIPA lysis buffer consisting of 20 mM Tris-HCl at pH 7.5, 150 mM NaCl, 1 mM EDTA, 1 mM EGTA, 1% NP40, 1% sodium deoxycholate, 1 mM Na3VO4, 2.5 mM sodium pyrophosphate, 1 mM 3-glycerophosphate, 1 μg/mL leupeptin, and a 1:1000 diluted protease inhibitor cocktail (Sigma). For immunoprecipitation studies, whole cell lysate lysates were centrifuged at 14,000×g and supernatants were precleared by incubation with Protein A/G-agarose beads for 2 h at 4° C. with rocking. Agarose beads were then pelleted by centrifugation at 1,000×g. FLAG-Arg2 in precleared lysates were immunoprecipitated by incubation overnight at 4° C. with rocking following addition of anti-FLAG antibody (10 μl). Immune complexes were eluted in 2×SDS sample buffer by boiling for 5 minutes before loading into SDS-PAGE. Western blotting analysis was performed by transferring the SDS gel onto a PVDF membrane and visualized using secondary antibodies conjugated to alkaline phosphatases.

Arg2 mRNA [3] = experiment: Arg2 mRNA in HAECs (RT-PCR, real-time PCR); format: cell-based, human; conditions: preincubated with TSA
Protocol: Total RNA was extracted from segments of mice aortas and HAEC using Trizol and PureLink (Invitrogen). RNA was then reverse transcribed with oligo dT primers to obtain cDNA and quantitative real time PCR (Applied Biosystems) was performed using SYBR Green Supermix mix (Applied Biosystems) whereas semiquantitative RTPCR was performed using conventional Biorad PCR machine and the following primer sets: Real Time PCR data are expressed as “fold change”, which is calculated as 2-ΔΔCt.

Arg2 mRNA [4] = experiment: Arg2 mRNA in isolated mice aorta (real-time PCR); format: cell-based, mouse; conditions: TSA 200 nmol/L, 18 hours
Protocol: Total RNA was extracted from segments of mice aortas and HAEC using Trizol and PureLink (Invitrogen). RNA was then reverse transcribed with oligo dT primers to obtain cDNA and quantitative real time PCR (Applied Biosystems) was performed using SYBR Green Supermix mix (Applied Biosystems) whereas semiquantitative RTPCR was performed using conventional Biorad PCR machine and the following primer sets:
Real Time PCR data are expressed as “fold change”, which is calculated as 2-ΔΔCt.

Arg2 ubiquitination = Arg2 ubiquitination in HAECs (immunoprecipitation); format: cell-based, human; conditions: preincubation with TSA; MG132 10 μmol/L in all groups
Protocol: as §1
Posttranslational modification by ubiquitin subjects proteins to proteasomal degradation and, therefore, affects their abundance. Because both acetylation and ubiquitination target lysine residues of proteins, there is a significant cross talk between these 2 pathways (Yang et al., 2008 Mol Cell, 31:449-461). […]

NO production in HAECs = experiment: Nitric oxide production in HAECs (DAF-DA fluorescence, Siever's NO analyzer); format: cell-based, human; conditions: TSA 1 μmol/L
Protocol: Nitric Oxide levels in HAEC were determined using DAF-DA as per manufacture instructions (Life Sciences). Briefly, cells were loaded with DAF-DA (5 μM) for 20 min and washed 3 times with PBS and incubated for another 30 min in phenol-free media. Fluorescence was determined using a Nikon TE-200 epifluorescence microscope. Images were captured with a Rolera EMC2 camera (Q-Imaging, BC, Canada) with Velocity software (PerkinElmer, Lexington, Mass.). NO production in the cell culture media was also determined by measuring Nitrite levels using a Siever's NO analyzer. NO radicals were measured in cell media collected after 24 hours of treatment using the Oxiselect assay (Cell Biolabs, San Diego, Calif.).

HDAC = conditions: cited from earlier work

For CC(/C=C/C(=O)NO)=C\[C@@H](C)C(=O)c1ccc(N(C)C)cc1 [TSA, trichostatin A], the “Emax endothelial cell-dependent vasorelaxation” value [1] was 66.3±7.54%, the “HAEC arginase activity, short-term” value ([2]; 30 minutes, nicotinamide 5 mmol/L, TSA 1 μmol/L) was “no effect” and the total arginase activity ([2]; TSA 400 nmol/L, 18 hours) was “increased”. For the same compound, the “Arg2 expression, broad-spectrum HDAC inhibitors” value (Arg2; 1 μmol/L, 18 hours) was “upregulated”, the “concentration of maximum effect on Arg2 protein” value (Arg2; 18 hours) was 1 µmol/L and the “Arg2 protein expression, dose dependence” value (Arg2; TSA 0, 0.1, 0.3, and 1 μmol/L, 18 hours) was “dose-dependent fashion”. The Arg2 expression (Arg2; TSA 400 nmol/L, 18 hours) was “increased”, the “time at which increase in Arg2 protein expression is observed” value (Arg2; TSA 1 μmol/L) was 8 h and the “Arg2 mRNA” value (Arg2 mRNA [3]) was “substantially upregulated”. For the same compound, the “Arg2 mRNA” value (Arg2 mRNA [4]) was “substantially upregulated”, the “ubiquitination of Arg2” value (Arg2 ubiquitination) was “no effects” and the NO production (NO production in HAECs) was “significantly decreased”. For the same compound, the IC50 (HDAC) was 1.8 nM.
